Read-outs that look alike come from different tables or passages of the source.
Columns and labels:
Format in all cases: biochemical
[1] = target: DPP4 (Homo sapiens, UniProt P27487); experiment: DPP4 inhibition, fluorogenic substrate H-Gly-Pro-AMC; parameters: purchased R&D Systems
[2] = target: T1, recombinant human DPP9 (Homo sapiens, UniProt Q86TI2); experiment: DPP9 inhibition, fluorogenic substrate H-Gly-Pro-AMC
T1 construct: purchased R&D Systems
Method in brief: (§1)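 Inhibitors are titrated in an 8-point series into the enzyme's assay buffer (DMSO no more than 0.5%). Substrate cleavage at 25 °C is followed by fluorescence, excitation 380 nm and emission 460 nm. IC50 values come from a four-variable logistic model.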

[3] = target: T2, Recombinant human FAP (Homo sapiens, UniProt Q12884); experiment: FAP inhibition, fluorogenic substrate Z-Gly-Pro-AMC
T2 construct: purchased R&D systems
T2 sequence (Q12884 1-760): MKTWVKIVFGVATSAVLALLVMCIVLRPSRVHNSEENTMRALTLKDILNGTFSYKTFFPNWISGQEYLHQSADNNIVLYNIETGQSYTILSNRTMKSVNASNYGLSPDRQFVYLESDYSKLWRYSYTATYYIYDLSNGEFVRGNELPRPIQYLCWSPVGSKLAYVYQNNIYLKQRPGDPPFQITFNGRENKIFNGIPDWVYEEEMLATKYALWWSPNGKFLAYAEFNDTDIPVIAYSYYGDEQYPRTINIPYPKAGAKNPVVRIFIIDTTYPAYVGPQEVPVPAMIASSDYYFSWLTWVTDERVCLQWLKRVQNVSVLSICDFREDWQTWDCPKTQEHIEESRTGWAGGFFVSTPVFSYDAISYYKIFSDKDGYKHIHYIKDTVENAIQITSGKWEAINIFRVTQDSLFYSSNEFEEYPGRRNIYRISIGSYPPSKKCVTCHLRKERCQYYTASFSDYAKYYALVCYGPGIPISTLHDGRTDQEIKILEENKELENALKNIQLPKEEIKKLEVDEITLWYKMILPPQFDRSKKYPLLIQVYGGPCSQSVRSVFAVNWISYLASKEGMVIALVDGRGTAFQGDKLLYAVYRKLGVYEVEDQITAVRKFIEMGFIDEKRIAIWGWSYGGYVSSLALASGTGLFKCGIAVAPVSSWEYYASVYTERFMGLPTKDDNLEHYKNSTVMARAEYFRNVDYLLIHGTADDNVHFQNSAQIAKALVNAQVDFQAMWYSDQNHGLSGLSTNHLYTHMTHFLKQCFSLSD
Method in brief: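 Eight-point compound dilutions (≤0.1% DMSO) were incubated at 25° C with 10 ng recombinant human FAP in Tris pH 7.5/1 M NaCl/BSA buffer and Z-Gly-Pro-AMC. Inhibition was taken as % drop in fluorescence rate (380/460 nm) against uninhibited control; IC50 came from a four-parameter logistic fit.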

[4] = target: T3, recombinant human DPP8 (Homo sapiens, UniProt Q6V1X1); experiment: DPP8 inhibition, fluorogenic substrate Z-Ala-Pro-AMC
T3 construct: purchased PBS Bioscience
T3 sequence (Q6V1X1 whole entry): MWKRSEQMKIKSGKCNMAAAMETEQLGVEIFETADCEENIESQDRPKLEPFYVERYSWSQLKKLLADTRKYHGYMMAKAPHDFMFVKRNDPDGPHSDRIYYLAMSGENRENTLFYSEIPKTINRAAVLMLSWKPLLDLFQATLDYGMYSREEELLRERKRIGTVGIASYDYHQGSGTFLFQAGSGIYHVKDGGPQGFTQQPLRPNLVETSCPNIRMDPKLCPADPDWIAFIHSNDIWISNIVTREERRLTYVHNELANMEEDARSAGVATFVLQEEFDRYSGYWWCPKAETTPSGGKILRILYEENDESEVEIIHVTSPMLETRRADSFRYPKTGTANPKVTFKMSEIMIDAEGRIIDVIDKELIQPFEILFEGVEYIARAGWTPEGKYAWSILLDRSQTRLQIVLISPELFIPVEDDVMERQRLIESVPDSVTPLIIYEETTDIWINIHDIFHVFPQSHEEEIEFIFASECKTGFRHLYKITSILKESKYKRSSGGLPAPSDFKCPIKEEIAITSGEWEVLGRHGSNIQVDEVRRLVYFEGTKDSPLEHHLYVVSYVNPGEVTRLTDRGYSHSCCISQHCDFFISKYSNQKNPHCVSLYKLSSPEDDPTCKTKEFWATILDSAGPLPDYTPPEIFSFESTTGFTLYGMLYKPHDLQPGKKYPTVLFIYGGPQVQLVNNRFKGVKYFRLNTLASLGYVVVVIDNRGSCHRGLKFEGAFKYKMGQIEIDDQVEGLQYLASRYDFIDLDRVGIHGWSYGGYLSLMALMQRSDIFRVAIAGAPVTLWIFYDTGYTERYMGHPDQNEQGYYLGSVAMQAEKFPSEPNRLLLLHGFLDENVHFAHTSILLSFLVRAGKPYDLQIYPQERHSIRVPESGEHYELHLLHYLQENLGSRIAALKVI
Method in brief: as §1

[5] = target: T4, recombinant human PREP (Homo sapiens, UniProt P48147); experiment: PREP inhibition, fluorogenic substrate Z-Gly-Pro-AMC; settings: Inhibitory Activity (IC50, nM) PREP
T4 construct: purchased R&D System
T4 sequence (P48147 1-710): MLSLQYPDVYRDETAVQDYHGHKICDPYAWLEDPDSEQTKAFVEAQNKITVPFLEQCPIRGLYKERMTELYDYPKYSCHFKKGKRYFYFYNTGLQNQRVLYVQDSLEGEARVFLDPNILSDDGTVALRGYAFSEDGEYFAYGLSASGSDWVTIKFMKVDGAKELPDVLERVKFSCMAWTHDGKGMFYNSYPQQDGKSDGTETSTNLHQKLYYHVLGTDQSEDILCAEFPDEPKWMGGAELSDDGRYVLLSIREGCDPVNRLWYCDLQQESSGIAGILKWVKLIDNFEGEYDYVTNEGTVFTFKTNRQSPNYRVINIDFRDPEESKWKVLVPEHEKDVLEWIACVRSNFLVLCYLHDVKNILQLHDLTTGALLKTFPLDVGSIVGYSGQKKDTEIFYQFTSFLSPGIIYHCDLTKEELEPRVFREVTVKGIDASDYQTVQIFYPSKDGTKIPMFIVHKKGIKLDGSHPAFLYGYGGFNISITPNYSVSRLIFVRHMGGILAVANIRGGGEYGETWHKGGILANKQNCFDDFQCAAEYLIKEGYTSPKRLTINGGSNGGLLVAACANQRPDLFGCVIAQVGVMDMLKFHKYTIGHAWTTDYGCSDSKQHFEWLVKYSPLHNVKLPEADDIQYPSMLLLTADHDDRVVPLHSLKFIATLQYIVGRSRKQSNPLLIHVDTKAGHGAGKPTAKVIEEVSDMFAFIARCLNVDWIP
Method in brief: as §1

[6] = target: T5, recombinant human DPP7 (Homo sapiens, UniProt Q9UHL4); experiment: DPP7 inhibition, fluorogenic substrate Lys-Pro-AMC
T5 construct: purchased R&D Systems
Method in brief: as §1

[7] = 25° C., H-Gly-Pro-AMC substrate
[8] = 25° C., Z-Gly-Pro-AMC substrate
[9] = 25° C., Z-Ala-Pro-AMC substrate
[10] = recombinant human FAP, substrate Z-Gly-Pro-AMC

T1 sequence (Q86TI2 whole entry): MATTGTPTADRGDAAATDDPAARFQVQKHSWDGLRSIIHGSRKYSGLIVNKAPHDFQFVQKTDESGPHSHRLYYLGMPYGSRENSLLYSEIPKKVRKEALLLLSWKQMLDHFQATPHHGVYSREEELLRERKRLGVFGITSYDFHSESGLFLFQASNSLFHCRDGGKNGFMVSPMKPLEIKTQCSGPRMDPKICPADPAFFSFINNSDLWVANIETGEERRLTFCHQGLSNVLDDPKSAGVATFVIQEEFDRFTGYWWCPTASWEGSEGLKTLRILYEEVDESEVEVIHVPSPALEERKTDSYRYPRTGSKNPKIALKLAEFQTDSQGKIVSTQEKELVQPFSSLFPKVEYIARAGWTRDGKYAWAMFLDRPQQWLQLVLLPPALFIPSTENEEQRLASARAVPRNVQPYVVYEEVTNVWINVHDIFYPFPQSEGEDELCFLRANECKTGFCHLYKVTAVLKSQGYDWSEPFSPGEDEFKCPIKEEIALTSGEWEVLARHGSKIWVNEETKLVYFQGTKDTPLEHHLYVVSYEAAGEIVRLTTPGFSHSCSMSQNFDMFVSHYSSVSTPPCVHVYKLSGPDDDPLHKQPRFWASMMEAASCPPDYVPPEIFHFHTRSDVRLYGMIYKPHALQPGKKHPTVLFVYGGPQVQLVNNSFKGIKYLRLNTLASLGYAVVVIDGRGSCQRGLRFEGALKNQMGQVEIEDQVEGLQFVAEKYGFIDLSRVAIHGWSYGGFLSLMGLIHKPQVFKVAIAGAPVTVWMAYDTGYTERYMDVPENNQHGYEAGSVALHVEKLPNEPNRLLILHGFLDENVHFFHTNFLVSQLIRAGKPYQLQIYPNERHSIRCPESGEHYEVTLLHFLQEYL
Chain of DPP4 (P27487 whole entry): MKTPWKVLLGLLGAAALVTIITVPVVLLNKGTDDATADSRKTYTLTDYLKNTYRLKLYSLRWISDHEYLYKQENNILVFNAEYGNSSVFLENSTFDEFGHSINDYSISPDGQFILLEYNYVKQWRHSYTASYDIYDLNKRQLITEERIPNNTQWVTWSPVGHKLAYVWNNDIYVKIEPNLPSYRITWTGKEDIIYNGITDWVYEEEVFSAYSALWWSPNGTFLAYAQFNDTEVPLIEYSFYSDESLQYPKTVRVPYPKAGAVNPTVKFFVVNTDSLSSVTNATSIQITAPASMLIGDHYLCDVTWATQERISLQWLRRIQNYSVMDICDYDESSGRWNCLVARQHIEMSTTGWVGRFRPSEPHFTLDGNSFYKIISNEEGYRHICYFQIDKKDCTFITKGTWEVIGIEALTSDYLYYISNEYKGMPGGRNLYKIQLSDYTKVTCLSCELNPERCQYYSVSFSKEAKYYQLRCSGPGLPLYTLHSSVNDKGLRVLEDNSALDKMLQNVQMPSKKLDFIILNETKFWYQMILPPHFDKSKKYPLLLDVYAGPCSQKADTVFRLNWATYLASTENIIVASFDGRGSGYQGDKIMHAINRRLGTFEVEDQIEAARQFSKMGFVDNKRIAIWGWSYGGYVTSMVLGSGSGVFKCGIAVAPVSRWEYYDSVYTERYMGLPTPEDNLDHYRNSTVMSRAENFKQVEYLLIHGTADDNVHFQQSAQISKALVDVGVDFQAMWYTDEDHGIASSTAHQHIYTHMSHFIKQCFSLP

Row | SMILES | hDPP4 inhibition % at 1 μM ([1]; at 1 μM) | IC50 [2, 7] [µM] | IC50 [3, 8] [µM] | IC50 [4, 9] [µM] | IC50 [5, 8] [nM] | IC50 [6] [µM] | IC50 [1, 7] [µM] | IC50 ([1]; recombinant human DPP4) [µM] | IC50 ([2]; recombinant human DPP9) [µM] | IC50 [3, 10] [µM] | IC50 ([4]; recombinant human DPP8) [µM] | IC50 ([5]; recombinant human PREP) [nM] | IC50 ([6]; recombinant human DPP7) [µM]
1 | N#C[C@@H]1CCCN1C(=O)CN1CCC(Oc2cccc3ncccc23)CC1 [Example 119, (S)-1-(2-(4-(quinolin-5-yloxy)piperidin-1-yl)acetyl)pyrrolidine-2-carbonitrile] | No inhibition** | > 100 | 0.00145 | 60.4 | 3760 | 2.35 | – | – | – | – | – | – | –
2 | N#C[C@@H]1C[C@H](F)CN1C(=O)CN1CCC(Oc2ccnc3ccc(F)cc23)CC1 [Example 126, (2S,4S)-4-fluoro-1-(2-(4-((6-fluoroquinolin-4-yl)oxy)piperidin-1-yl)acetyl)pyrrolidine-2-carbonitrile] | – | 11 | 0.00084 | 16.4 | 1130 | 10.4 | 7.96 | – | – | – | – | – | –
3 | N#C[C@@H]1C[C@H](F)CN1C(=O)CN1CCC(Oc2ccnc3ccc(Cl)cc23)CC1 [Example 127, (2S,4S)-1-(2-(4-((6-chloroquinolin-4-yl)oxy)piperidin-1-yl)acetyl)-4-fluoropyrrolidine-2-carbonitrile] | – | 23.7 | 0.00065 | 8.73 | 621 | 9.23 | > 10 | – | – | – | – | – | –
4 | COc1ccc2c(OC3CCN(CC(=O)N4C[C@@H](F)C[C@H]4C#N)CC3)ccnc2c1 [Example 129, (2S,4S)-4-fluoro-1-(2-(4-((7-methoxyquinolin-4-yl)oxy)piperidin-1-yl)acetyl)pyrrolidine-2-carbonitrile] | – | 4.85 | 0.00266 | 9.84 | 161 | 0.642 | > 10 | – | – | – | – | – | –
5 | COc1cc2nccc(OC3CCN(CC(=O)N4C[C@@H](F)C[C@H]4C#N)CC3)c2cc1OC [Example 130, (2S,4S)-1-(2-(4-((6,7-dimethoxyquinolin-4-yl)oxy)piperidin-1-yl)acetyl)-4-fluoropyrrolidine-2-carbonitrile] | – | 5.97 | 0.00125 | 10.4 | 2340 | 0.904 | > 10 | – | – | – | – | – | –
6 | Cc1cnc2cccc(NC3CCN(CC(=O)N4C[C@@H](F)C[C@H]4C#N)CC3)c2c1 [Example 131, (2S,4S)-4-fluoro-1-(2-(4-((3-methylquinolin-5-yl)amino)piperidin-1-yl)acetyl)pyrrolidine-2-carbonitrile] | – | 2.78 | 0.00273 | 8.26 | 7920 | 0.61 | 3.45 | – | – | – | – | – | –
7 | COc1ccc(NC2CCN(CC(=O)N3C[C@@H](F)C[C@H]3C#N)CC2)c2cccnc12 [Example 135, (2S,4S)-4-fluoro-1-(2-(4-((8-methoxyquinolin-5-yl)amino)piperidin-1-yl)acetyl)pyrrolidine-2-carbonitrile] | – | 3.44 | 0.00347 | 5.78 | 4990 | 1.02 | 4.14 | – | – | – | – | – | –
8 | COc1ccc2c(C(=O)N[C@H]3CCN(CC(=O)N4C[C@@H](F)C[C@H]4C#N)C3)coc2c1 [Example 136, 6-methoxy-N-[(3S)-1-[2-oxo-2-[(2S,4S)-2-cyano-4-fluoro-pyrrolidin-1-yl]ethyl]pyrrolidin-3-yl]benzofuran-3-carboxamide] | – | 14.5 | 0.0123 | 22.3 | 5150 | 1.95 | 9.03 | – | – | – | – | – | –
9 | N#C[C@@H]1CCCN1C(=O)CN1CC[C@H](Nc2cnc3ccccc3c2)C1 [Example 229, (2S)-1-[2-[(3S)-3-(3-quinolylamino)pyrrolidin-1-yl]acetyl]pyrrolidine-2-carbonitrile] | – | – | – | – | – | – | – | > 10 | 36.3 | 0.0168 | > 100 | 4840 | 1.16
10 | N#C[C@@H]1CCCN1C(=O)CN1CC[C@H](Nc2ccc3ncccc3c2)C1 [Example 230, (2S)-1-[2-[(3S)-3-(6-quinolylamino)pyrrolidin-1-yl]acetyl]pyrrolidine-2-carbonitrile] | – | – | – | – | – | – | – | > 10 | 17.6 | 0.0093 | > 100 | 8770 | 1.36

The remaining lines, values ahead:

Row | hDPP4 inhibition % at 1 μM ([1]; at 1 μM) | IC50 [2, 7] [µM] | IC50 [3, 8] [µM] | IC50 [4, 9] [µM] | IC50 [5, 8] [nM] | IC50 [6] [µM] | IC50 [1, 7] [µM] | IC50 ([1]; recombinant human DPP4) [µM] | IC50 ([2]; recombinant human DPP9) [µM] | IC50 [3, 10] [µM] | IC50 ([4]; recombinant human DPP8) [µM] | IC50 ([5]; recombinant human PREP) [nM] | IC50 ([6]; recombinant human DPP7) [µM] | SMILES
11 | – | 46.9 | 0.00184 | 48.1 | 73700 | 1.74 | > 10 | – | – | – | – | – | – | Cc1cnc2cccc(NC3CCN(CC(=O)N4CCC[C@H]4C#N)CC3)c2c1 [Example 121, (S)-1-(2-(4-((3-methylquinolin-5-yl)amino)piperidin-1-yl)acetyl)pyrrolidine-2-carbonitrile]
12 | – | > 100 | 0.445 | > 100 | 23700 | > 100 | > 10 | – | – | – | – | – | – | Cc1ccc2ncccc2c1NC1CCN(CC(=O)N2CCC[C@H]2C#N)CC1 [Example 122, (S)-1-(2-(4-((6-methylquinolin-5-yl)amino)piperidin-1-yl)acetyl)pyrrolidine-2-carbonitrile]
13 | – | 44.9 | 0.00241 | > 30 | 20100 | 1.28 | > 10 | – | – | – | – | – | – | N#C[C@@H]1CCCN1C(=O)CN1CCC(Nc2cc(F)cc3ncccc23)CC1 [Example 123, (S)-1-(2-(4-((7-fluoroquinolin-5-yl)amino)piperidin-1-yl)acetyl)pyrrolidine-2-carbonitrile]
14 | – | 82.7 | 0.00381 | 46.8 | 16100 | 0.518 | > 10 | – | – | – | – | – | – | COc1cc(NC2CCN(CC(=O)N3CCC[C@H]3C#N)CC2)c2cccnc2c1 [Example 124, (S)-1-(2-(4-((7-methoxyquinolin-5-yl)amino)piperidin-1-yl)acetyl)pyrrolidine-2-carbonitrile]
15 | – | > 100 | 0.0055 | 33.7 | 28900 | 5.55 | > 10 | – | – | – | – | – | – | COc1ccc(NC2CCN(CC(=O)N3CCC[C@H]3C#N)CC2)c2cccnc12 [Example 125, (S)-1-(2-(4-((8-methoxyquinolin-5-yl)amino)piperidin-1-yl)acetyl)pyrrolidine-2-carbonitrile]
16 | – | 3.64 | 0.00217 | 13.9 | 2820 | 0.492 | 7.43 | – | – | – | – | – | – | N#C[C@@H]1C[C@H](F)CN1C(=O)CN1CCC(Nc2cc(F)cc3ncccc23)CC1 [Example 132, (2S,4S)-4-fluoro-1-(2-(4-((7-fluoroquinolin-5-yl)amino)piperidin-1-yl)acetyl)pyrrolidine-2-carbonitrile]
17 | – | 6 | 0.00237 | 6.48 | 2600 | 0.153 | 6.02 | – | – | – | – | – | – | COc1cc(NC2CCN(CC(=O)N3C[C@@H](F)C[C@H]3C#N)CC2)c2cccnc2c1 [Example 133, (2S,4S)-4-fluoro-1-(2-(4-((7-methoxyquinolin-5-yl)amino)piperidin-1-yl)acetyl)pyrrolidine-2-carbonitrile]

Source: patent publication US11655235B2, “Pyrrolidine and piperidine compounds” (YUHAN CORPORATION, priority 2019, dated 2023)
